Test results reported in patent publication US7425532B2, “Use of alanyl aminopeptidase inhibitors and pharmaceutical compositions containing said inhibitors” (IMTM GmbH, priority 2002, dated 2008).

Experiments:
[1] = test system: human regulatory T-lymphocytes (CD4+CD25+); test: Gene expression of TGF-β1 (TGF-β1-mRNA) in human regulatory T-lymphocytes, quantitative RT-PCR; assay type: cell-based; conditions: PHA/PMA plus inhibitor
Protocol: Induction of the Gene Expression of TGF-β1 in Human Regulatory T-Lymphocytes (CD4^+CD25^+) After an Incubation with the Inhibitor Phebestin
(§1) The T-cells were incubated for 24 h without adding (control), with adding PHA and PMA or with simultaneously adding PHA/PMA and phebestin. PHA (phythemagglutinine) and PMA (phorbol myristate acetate) were used as mito-gens and agents stimulating the proliferation. Subsequently, the content of TGF-β1-mRNA was determined by quantitative RT-PCR and using the i-cycler.
Induction of the Gene Expression of TGF-β1 in Human Regulatory T-Lymphocytes (CD4^+CD25^+) after an incubation with the inhibitor PAQ-22
as §1, with “PMA and” for “PMA or”, “and PAQ-22.” for “and phebestin.”
Induction of the Gene Expression of TGF-β1 in Human Regulatory T-Lymphocytes (CD4^+CD25^+) After an Incubation with the Aminopeptidase Inhibitor RB3014
as §1, with “for 72” for “for 24”, “PMA and” for “PMA or”, “and RB3014.” for “and phebestin.”

[2] = test system: human regulatory T-lymphocytes (CD4+CD25+); test: Surface expression of TGF-β1 on human regulatory T-lymphocytes, flow cytometry with anti-TGF-β1 antibody; assay type: cell-based; conditions: 24 h incubation, PHA/PMA plus inhibitor; results only in FIG. 1
Protocol: Induction of the Surface Expression of TGF-β1 on Human Regulatory T-Lymphocytes (CD4^+CD25^+) After Incubation with the Inhibitor Phebestin
The T-cells were incubated for 24 h without adding (control), with adding PHA and PMA and with simultaneously adding PHA/PMA and phebestin. PHA (phythemagglutinine) and PMA (phorbol myristate acetate) were used as mito-gens and agents stimulating the proliferation. Subsequently, the surface expression of TGF-β1 was measured by flow cytometry using a commercially available polyclonal anti-TGF-β1 antibody (chicken anti-human; R & D Systems).

[3] = 24 h incubation, results only in FIG. 2, FIG. 3

Structure (SMILES): CCc1cccc(CC)c1-n1c(=O)[nH]c2ccccc2c1=O [PAQ-22]
- gene expression of TGF-β1 (content of TGF-β1-mRNA) [1, 3]: Induction

Structure (SMILES): CC(C)[C@H](NC(=O)[C@@H](O)[C@H](N)Cc1ccccc1)C(=O)N[C@@H](Cc1ccccc1)C(=O)O [Phebestin, phebestin]
- gene expression of TGF-β1 (content of TGF-β1-mRNA) [1, 3]: Induction
- surface expression of TGF-β1 [2]: Induction

Structure (SMILES): CC(N)P(=O)(O)CC(Cc1ccccc1)C(=O)NC(Cc1ccccc1)C(=O)O (stereo not shown) [RB3014]
- gene expression of TGF-β1 (content of TGF-β1-mRNA) ([1]; 72 h incubation, results only in FIG. 4): Induction
